Measured values: patent publication US4617308A, “7-substituted amino-1-aryl-6,8-difluoro-1,4-dihydro-4-oxo-3-quinolinecarboxylic acids and derivatives thereof as antibacterial agents” (Warner-Lambert Company, priority 1985, dated 1986)
Values after ≈ are worked out from the molar mass of the structure shown.

Experiments:
Experiment in all cases: In vitro antibacterial activity, microtitration dilution method
Assay type in all cases: cell-based
[1] = test system: Staphylococcus aureus UC-76; conditions: UC76, read-out: Minimal Inhibitory Concentration MIC
Excerpt: (§1) The compounds of the invention display anti-bacterial activity when tested by the microtitration dilution method as described in Heifetz, et al, Antimicr. Agents & Chemoth., 6, 124 (1974), which is incorporated herein by reference and illustrated in the following table.

[2] = test system: Klebsiella pneumoniae MGH-2; conditions: MGH2, read-out: Minimal Inhibitory Concentration MIC
Excerpt: as §1

[3] = test system: Streptococcus pneumoniae SV-1; conditions: SV1, read-out: Minimal Inhibitory Concentration MIC
Excerpt: as §1

[4] = test system: Enterobacter cloacae MA 2646; conditions: MA2646, read-out: Minimal Inhibitory Concentration MIC
Excerpt: as §1

Escherichia coli Vogel = conditions: read-out: Minimal Inhibitory Concentration MIC
Excerpt: as §1

[5] = test system: Staphylococcus aureus H 228; conditions: H228, read-out: Minimal Inhibitory Concentration MIC
Excerpt: as §1

[6] = test system: Streptococcus faecalis MGH-2; conditions: Enterococcus faecalis, MGH2, read-out: Minimal Inhibitory Concentration MIC
Excerpt: as §1

[7] = test system: Pseudomonas aeruginosa UI-18; conditions: UI18, read-out: Minimal Inhibitory Concentration MIC
Excerpt: as §1

[8] = test system: Streptococcus pyogenes C-203; conditions: C203, read-out: Minimal Inhibitory Concentration MIC
Excerpt: as §1

Proteus rettgeri M 1771 = conditions: Providencia rettgeri, M1771, read-out: Minimal Inhibitory Concentration MIC
Excerpt: as §1

SMILES	MIC [1] [µg/mL]	MIC [2] [µg/mL]	MIC [3] [µg/mL]	MIC [4] [µg/mL]	MIC (Escherichia coli Vogel) [µg/mL]	MIC [5] [µg/mL]	MIC [6] [µg/mL]	MIC [7] [µg/mL]	MIC [8] [µg/mL]	MIC (Proteus rettgeri M 1771) [µg/mL]
CCNCC1CCN(c2c(F)cc3c(=O)c(C(=O)O)cn(-c4ccc(F)cc4)c3c2F)C1 (stereo not drawn) [Ex. 1]	0.2 (≈ 0.449 µM)	1.6 (≈ 3.59 µM)	0.4 (≈ 0.898 µM)	0.8 (≈ 1.8 µM)	0.8 (≈ 1.8 µM)	0.1 (≈ 0.224 µM)	0.2 (≈ 0.449 µM)	1.6 (≈ 3.59 µM)	0.4 (≈ 0.898 µM)	1.6 (≈ 3.59 µM)
CCNCC1CCN(c2c(F)cc3c(=O)c(C(=O)O)cn(-c4ccccc4)c3c2F)C1 (stereo not drawn) [Ex. 3, 7-[3-[(Ethylamino)methyl]-1-pyrrolidinyl]-6,8-difluoro-1,4-dihydro-4-oxo-1-phenyl-3-quinolinecarboxylic acid]	0.2 (≈ 0.468 µM)	1.6 (≈ 3.74 µM)	1.6 (≈ 3.74 µM)	1.6 (≈ 3.74 µM)	1.6 (≈ 3.74 µM)	0.8 (≈ 1.87 µM)	0.8 (≈ 1.87 µM)	6.3 (≈ 14.7 µM)	1.6 (≈ 3.74 µM)	6.3 (≈ 14.7 µM)
NCC1CCN(c2c(F)cc3c(=O)c(C(=O)O)cn(-c4ccccc4)c3c2F)C1 (stereo not drawn) [Ex. 4, 7-[3-(Aminomethyl)-1-pyrrolidinyl]-6,8-difluoro-1,4-dihydro-4-oxo-1-phenyl-3-quinoline carboxylic acid]	0.1 (≈ 0.25 µM)	0.8 (≈ 2 µM)	0.2 (≈ 0.501 µM)	0.4 (≈ 1 µM)	0.2 (≈ 0.501 µM)	0.2 (≈ 0.501 µM)	0.2 (≈ 0.501 µM)	1.6 (≈ 4.01 µM)	0.2 (≈ 0.501 µM)	1.6 (≈ 4.01 µM)
